From patent US11701333B2, “Antibacterial compounds” (KENT INNOVATION & ENTERPRISE, priority 2017, dated 2023)
Converted amounts (≈) assume the structure as drawn.

Tests used:
Assay type in all cases: cell-based
S. aureus [1] = experiment: Calculated MIC50 and MIC100 values; conditions: for MIC50 Staph Log / MIC100 Staph Log: log phase; for MIC50 Staph Stat / MIC100 Staph Stat: stationary phase
From the text: (§1) The present inventors have determined MIC50 values, in the nM-μM range, for lead compounds, against clinical S. aureus isolates (e.g. MRSA) and E. coli in both log and stationary phases.

E. coli [2] = experiment: Calculated MIC50 and MIC100 values
From the text: as §1

S. aureus [3] = experiment: growth rate (growth curve) activity screening; conditions: for Grow Rates activity S. aureus: phase not given; for Grow Rates activity S. aureus Log: log phase bacterial growth
From the text: (§2) The ability of each of the compounds of the invention to impact bacterial growth and viability has been tested. This has been undertaken using a novel drop-test method for initial activity screening, as well as using conventional growth curve analysis methodology. This novel class of antimicrobial agent has shown bactericidal activity against Gram +ve (e.g. S. aureus, Bacillus megaterium) and bacteriostatic activity against Gram −ve isolates (e.g. E. coli).
(§3) The compounds were screened initially by drop testing methods and then by growth rate methods as it was identified that drop testing methods could give false negatives.

E. coli [4] = experiment: growth rate (growth curve) activity screening; conditions: first E. coli growth column, phase not given
From the text: as §2, §3

S. aureus [5] = experiment: drop test activity screening; further: key: Y = antibacterial activity; N = No antibacterial activity
From the text: as §2, §3

E. coli [6] = experiment: drop test activity screening; further: key: Y = antibacterial activity; N = No antibacterial activity
From the text: as §2, §3

Row | Compound | Grow Rates activity S. aureus Log (S. aureus [3]) | drop test activity S. aureus (S. aureus [5]) | drop test activity E. coli (E. coli [6]) | further results
1 | O=C(NCS(=O)(=O)O)Nc1ccc(C(F)(F)F)cc1 [Compound 1] | Y | Y | N | MIC50 Staph Log (S. aureus [1]): 7.35 μg/mL; MIC100 Staph Log (S. aureus [1]): 29.41 μg/mL; MIC50 Staph Stat (S. aureus [1]): 209.132 µg/mL (≈ 701 µM); MIC100 Staph Stat (S. aureus [1]): 254.5639 µg/mL (≈ 854 µM); MIC50 Coli Stat (E. coli [2]; stationary phase): 412.0789 µg/mL (≈ 1380 µM); MIC100 Coli Stat (E. coli [2]; stationary phase): 421.0559 µg/mL (≈ 1410 µM); Grow Rates activity S. aureus (S. aureus [3]): Y; Grow Rates activity E. coli (E. coli [4]): Y
2 | O=S(=O)(O)CNC(=S)Nc1ccc(C(F)(F)F)cc1 [Compound 2] | Y | Y | N | MIC50 Staph Log (S. aureus [1]): 54.13 μg/mL; MIC100 Staph Log (S. aureus [1]): 93.55 μg/mL; Grow Rates activity E. coli (E. coli [4]): Y
3 | O=C(NCCS(=O)(=O)O)Nc1ccc(C(F)(F)F)cc1 [Compound 3] | – | N | N | –
4 | O=S(=O)(O)CCNC(=S)Nc1ccc(C(F)(F)F)cc1 [Compound 4] | – | Y | N | –
5 | O=C(NCCCS(=O)(=O)O)Nc1ccc(C(F)(F)F)cc1 [Compound 5] | – | N | N | –
6 | O=S(=O)(O)CCCNC(=S)Nc1ccc(C(F)(F)F)cc1 [Compound 6] | – | Y | N | –
7 | O=C(NCS(=O)(=O)O)Nc1ccc(C(F)(F)F)cc1 [Compound 31] | Y | Y | N | MIC50 Staph Log (S. aureus [1]): 21.6 μg/mL; MIC100 Staph Log (S. aureus [1]): 22.68 μg/mL; MIC50 Staph Stat (S. aureus [1]): 14.79 µg/mL (≈ 49.6 µM); MIC100 Staph Stat (S. aureus [1]): 14.84 µg/mL (≈ 49.8 µM)
8 | O=C(NCS(=O)(=O)O)Nc1ccc(C(F)(F)F)cc1 [Compound 32] | Y | Y | N | MIC50 Staph Log (S. aureus [1]): 19.14 μg/mL; MIC100 Staph Log (S. aureus [1]): 20.08 μg/mL; MIC50 Staph Stat (S. aureus [1]): 39.4 µg/mL (≈ 132 µM); MIC100 Staph Stat (S. aureus [1]): 57 µg/mL (≈ 191 µM)
9 | O=C(NCS(=O)(=O)O)Nc1ccc(C(F)(F)F)cc1 [Compound 33] | Y | Y | N | MIC50 Staph Log (S. aureus [1]): 0.45 μg/mL; MIC100 Staph Log (S. aureus [1]): 2.971 μg/mL; MIC50 Staph Stat (S. aureus [1]): 5.579 µg/mL (≈ 18.7 µM); MIC100 Staph Stat (S. aureus [1]): 7.304 µg/mL (≈ 24.5 µM)
10 | O=C(NCS(=O)(=O)O)Nc1ccc(C(F)(F)F)cc1 [Compound 34] | Y | Y | N | MIC50 Staph Log (S. aureus [1]): 146.6192 μg/mL; Grow Rates activity E. coli (E. coli [4]): Y
11 | O=C(NCS(=O)(=O)O)Nc1ccc(C(F)(F)F)cc1 [Compound 37] | Y | Y | N | MIC50 Staph Log (S. aureus [1]): 29.08 μg/mL; MIC100 Staph Log (S. aureus [1]): 30.35 μg/mL; MIC50 Staph Stat (S. aureus [1]): 464.1399 µg/mL (≈ 1560 µM); MIC100 Staph Stat (S. aureus [1]): 559.1301 µg/mL (≈ 1870 µM); MIC50 (E. coli [2]; Escherichia coli, stationary phase, read-out: MIC50 Coli Stat): 451 µg/mL (≈ 1510 µM); MIC (E. coli [2]; Escherichia coli, stationary phase, read-out: MIC100 Coli Stat): 480 µg/mL (≈ 1610 µM); MIC50 Coli Log (E. coli [2]; log phase): 236.9979 μg/mL; MIC100 Coli Log (E. coli [2]; log phase): 505.6726 μg/mL
12 | O=C(NCS(=O)(=O)O)Nc1ccc([N+](=O)[O-])cc1 [Compound 38] | Y | Y | N | Grow Rates activity E. coli (E. coli [4]): Y
13 | COc1ccc(NC(=O)NCS(=O)(=O)O)cc1 [Compound 39] | – | N | N | –
14 | O=C(NCS(=O)(=O)O)Nc1ccccc1 [Compound 40] | – | N | N | –
15 | O=C(NCS(=O)(=O)[O-])Nc1ccc(C(F)(F)F)cc1.[Na+] [Compound 41] | – | Y | N | –
16 | O=C(NCS(=O)(=O)[O-])Nc1ccc(C(F)(F)F)cc1.[K+] [Compound 42] | – | N | N | –
17 | O=S(=O)(O)CNC(=S)Nc1cc(C(F)(F)F)cc(C(F)(F)F)c1 [Compound 43] | Y | Y | N | Grow Rates activity E. coli (E. coli [4]): Y
18 | O=C(NCS(=O)(=O)O)Nc1cc(C(F)(F)F)cc(C(F)(F)F)c1 [Compound 44] | – | Y | N | –

Row | Compound | Grow Rates activity S. aureus Log (S. aureus [3]) | drop test activity S. aureus (S. aureus [5]) | drop test activity E. coli (E. coli [6]) | further results
19 | O=C(NCS(=O)(=O)O)Nc1cccc2ccccc12 [Compound 45] | – | N | N | –
20 | CCCCNC(=O)NCS(=O)(=O)O [Compound 46, reference compound] | – | N | N | –
21 | CCCCNC(=S)NCS(=O)(=O)O [Compound 47, reference compound] | – | N | N | –
22 | CCCCNC(=O)NCCS(=O)(=O)O [Compound 48, reference compound] | – | N | N | –
23 | CCCCNC(=S)NCCS(=O)(=O)O [Compound 49, reference compound] | – | N | N | –
24 | CCCCNC(=O)NCCCS(=O)(=O)O [Compound 50, reference compound] | – | N | N | –
25 | CCCCNC(=S)NCCCS(=O)(=O)O [Compound 51, reference compound] | – | N | N | –
26 | O=C(NCS(=O)(=O)O)Nc1ccc2cc3ccccc3cc2c1 [Compound 52] | Y | N | N | MIC50 Staph Log (S. aureus [1]): 330.0044 μg/mL; Grow Rates activity E. coli (E. coli [4]): Y
27 | Cc1ccc2sc(-c3ccc(NC(=O)NCS(=O)(=O)O)cc3)nc2c1 [Compound 53] | Y | Y | N | MIC50 Staph Log (S. aureus [1]): 21.11 μg/mL; Grow Rates activity E. coli (E. coli [4]): Y
28 | O=C(NCS(=O)(=O)O)Nc1ccccc1-c1nc2ccccc2s1 [Compound 54] | – | N | N | –
29 | O=S(=O)(O)CNC(=S)Nc1ccc(C(F)(F)F)cc1 [Compound 61] | Y | N | N | –
30 | O=S(=O)(O)CNC(=S)Nc1ccc(C(F)(F)F)cc1 [Compound 62] | Y | N | N | –
31 | O=S(=O)(O)CNC(=S)Nc1ccc(C(F)(F)F)cc1 [Compound 63] | – | N | N | –
32 | O=C(NCS(=O)(=O)O)Nc1c(F)c(F)c(F)c(F)c1F [Compound 65] | – | N | N | –
33 | O=C(NCS(=O)(=O)O)Nc1ccc(Cc2ccc(NC(=O)NCS(=O)(=O)O)cc2)cc1 [Compound 68] | Y | Y | N | MIC50 Staph Log (S. aureus [1]): 370.0761 μg/mL
34 | O=C(NCS(=O)(=O)O)Nc1nc2ccccc2s1 [Compound 71] | Y | N | N | Grow Rates activity S. aureus (S. aureus [3]): N
35 | Cc1ccc2nc(NC(=O)NCS(=O)(=O)O)sc2c1 [Compound 72] | N | N | N | Grow Rates activity S. aureus (S. aureus [3]): Y
36 | Nc1ccc(NC(=O)NCS(=O)(=O)O)cc1 [Compound 74] | Y | N | N | –
